Patent US4536571A, “Selenium-containing platinum compound” (priority 1983, dated 1985)

What was measured:
[1] = test system: cadmium toxicity; details: in vivo; cited from earlier work
[2] = test system: Cisplatin induced nephrotoxicity (blood urea nitrogen); assay: BUN determination in Cisplatin-treated mice, sodium selenite time course (Table 1); format: in vivo, BDF1 mice
Method: (§1) BUN of the mice which have been administered a platinum complex increases due to the platinum poisoning in the kidney. […] The method of negating platinum toxicity of the present invention will be illustrated in more detail by way of Examples later.
(§2) Sodium selenite was administered to the peritoneal cavities of the mice at a dosage of 6.3 mg/kg. […] BUN of the mice was determined on the fourth day from the date of the administration. […] BUN of these control groups was also determined.
*^1 Average BUN value of mice which was determined on the fourth day
*^3 The figure in parentheses means the number of dead mice.

[3] = test system: Cisplatin induced nephrotoxicity (blood urea nitrogen); assay: BUN determination in Cisplatin-treated mice, sodium selenite time course (Table 2); format: in vivo, BDF1 mice; details: for number of dead mice: fourth day
Method: as §1, §2

[4] = test system: Cisplatin induced nephrotoxicity (blood urea nitrogen); assay: BUN determination in Cisplatin-treated mice, sodium selenite dose series (Table 3); format: in vivo, BDF1 mice
Method: as §1
BUN of the mice was dertermined on the fourth day from the date of administration and on the eleventh day from the date of the administration. […] BUN of these control groups was also determined.

[5] = LD50 of Selenium Compounds; details: mouse, in vivo, ip; intraperitoneal route, BDF1 male mice
Method: Our studies were carried out in BDF1 male mice weighing approximately 25 grams. All solutions were freshly were daily and given by the intraperitoneal route.

[6] = test system: nephrotoxic effects of Cisplatin; details: female rats; 750 mg/kg intraperitoneally or 100 mg/kg intravenously; cited from earlier work
[7] = sodium selenite 6.3 mg/kg i.p. 2 hours before Cisplatin 14 mg/kg i.p.
[8] = sodium selenite 6.3 mg/kg i.p. 4 hours before Cisplatin 14 mg/kg i.p.
[9] = sodium selenite 6.3 mg/kg i.p. simultaneously with Cisplatin 14 mg/kg i.p.
[10] = sodium selenite 6.3 mg/kg i.p. 3 hours before Cisplatin 14 mg/kg i.p.
[11] = sodium selenite 6.3 mg/kg i.p. 6 hours before Cisplatin 14 mg/kg i.p.
[12] = sodium selenite 1 mg/kg i.p. 2 hours before Cisplatin 14 mg/kg i.p.
[13] = sodium selenite 2 mg/kg i.p. 2 hours before Cisplatin 14 mg/kg i.p.
[14] = sodium selenite 4 mg/kg i.p. 2 hours before Cisplatin 14 mg/kg i.p.
[15] = sodium selenite 6 mg/kg i.p. 2 hours before Cisplatin 14 mg/kg i.p.
[16] = sodium selenite 8 mg/kg i.p. 2 hours before Cisplatin 14 mg/kg i.p.

Question: With `[Se]` [selenium] as the compound, how does the “cadmium induced testicular damage” value [1] read?
Answer: Its value is “prevents”.

Question: With `O=[Se](O)O` [Sodium selenite, sodium selenite] as the compound, how does the “number of dead mice” value ([2]; fourth day, sodium selenite 6.3 mg/kg i.p. 2 hours before Cisplatin 14 mg/kg i.p.) read?
Answer: The value was 2.

Question: What about the “BUN (≥30) on the fourth day, mice” value ([2]; sodium selenite 6.3 mg/kg i.p. 1 hour after Cisplatin 14 mg/kg i.p.) of the same compound?
Answer: The value was 5/5.

Question: What about the “BUN (≥30) on the fourth day, mice” value [2, 7] of the same compound?
Answer: The value was 1/3.

Question: What about the “BUN (≥30) on the fourth day, mice” value [2, 8] of the same compound?
Answer: The value was 4/5.

Question: What about the “BUN (≥30) on the fourth day, mice” value [2, 9] of the same compound?
Answer: The value was 2/5.

Question: And the “BUN (≥30) on the fourth day, mice” value ([2]; sodium selenite 6.3 mg/kg only, i.p.)?
Answer: The value was 0/5.

Question: And the “number of dead mice” value [3, 10]?
Answer: The value was 1.

Question: And the “number of dead mice” value [3, 8]?
Answer: Its value is 1.

Question: What about the “number of dead mice” value [3, 11] of the same compound?
Answer: The value was 1.

Question: And the “number of dead mice” value [3, 9]?
Answer: The value was 1.

Question: And the “BUN (≥30) on the fourth day, mice” value ([3]; sodium selenite 6.3 mg/kg i.p. 1 hour before Cisplatin 14 mg/kg i.p.)?
Answer: Its value is 3/5.

Question: And the “BUN (≥30) on the fourth day, mice” value [3, 7]?
Answer: Its value is 1/5.

Question: What about the “BUN (≥30) on the fourth day, mice” value [3, 10] of the same compound?
Answer: The value was 1/4.

Question: What about the “BUN (≥30) on the fourth day, mice” value [3, 8] of the same compound?
Answer: Its value is 2/4.

Question: And the “BUN (≥30) on the fourth day, mice” value [3, 11]?
Answer: The value was 2/4.

Question: What about the “BUN (≥30) on the fourth day, mice” value [3, 9] of the same compound?
Answer: The value was 2/4.

Question: And the “number of dead mice” value ([4]; eleventh day, sodium selenite 2 mg/kg i.p. 2 hours before Cisplatin 14 mg/kg i.p.)?
Answer: The value was 1.

Question: And the “number of dead mice” value ([4]; eleventh day, sodium selenite 4 mg/kg i.p. 2 hours before Cisplatin 14 mg/kg i.p.)?
Answer: The value was 2.

Question: What about the “number of dead mice” value ([4]; eleventh day, sodium selenite 6 mg/kg i.p. 2 hours before Cisplatin 14 mg/kg i.p.) of the same compound?
Answer: Its value is 1.

Question: What about the “number of dead mice” value ([4]; eleventh day, sodium selenite 8 mg/kg i.p. 2 hours before Cisplatin 14 mg/kg i.p.) of the same compound?
Answer: Its value is 1.

Question: And the “number of dead mice” value ([4]; fourth day, sodium selenite 4 mg/kg i.p. 2 hours before Cisplatin 14 mg/kg i.p.)?
Answer: Its value is 1.

Question: What about the “number of dead mice” value ([4]; fourth day, sodium selenite 8 mg/kg i.p. 2 hours before Cisplatin 14 mg/kg i.p.) of the same compound?
Answer: Its value is 1.

Question: What about the “BUN (≥30) on the eleventh day, mice” value [4, 12] of the same compound?
Answer: The value was 1/5.

Question: What about the “BUN (≥30) on the fourth day, mice” value [4, 12] of the same compound?
Answer: The value was 3/5.

Question: What about the “BUN (≥30) on the eleventh day, mice” value [4, 13] of the same compound?
Answer: Its value is 0/4.

Question: What about the “BUN (≥30) on the fourth day, mice” value [4, 13] of the same compound?
Answer: Its value is 1/5.

Question: And the “BUN (≥30) on the eleventh day, mice” value [4, 14]?
Answer: The value was 0/3.

Question: And the “BUN (≥30) on the fourth day, mice” value [4, 14]?
Answer: Its value is 1/4.

Question: What about the “BUN (≥30) on the eleventh day, mice” value [4, 15] of the same compound?
Answer: The value was 0/4.

Question: And the “BUN (≥30) on the fourth day, mice” value [4, 15]?
Answer: Its value is 1/5.

Question: And the “BUN (≥30) on the eleventh day, mice” value [4, 16]?
Answer: The value was 0/4.

Question: What about the “BUN (≥30) on the fourth day, mice” value [4, 16] of the same compound?
Answer: Its value is 1/4.

Question: And the LD50 [5]?
Answer: Its LD50 is 3.25 to 3.5 mg/kg.

Question: For `O=[Se](=O)(O)O` [sodium selenate], which LD50 [5] is on record?
Answer: The LD50 was 5.25 to 5.75 mg/kg.

Question: With `N[C@@H](C[Se][Se]C[C@H](N)C(=O)O)C(=O)O` [selenocystine] as the compound, how does the LD50 [5] read?
Answer: Its LD50 is 4 mg/kg.

Question: For `CCN(CC)C(=S)[S-].[Na+]` [sodium diethyldithiocarbamate], which “nephrotoxic effects of Cisplatin” value [6] is on record?
Answer: Its value is “effectively inhibited”.
